Data published in patent publication US20260209249A1, “NOVEL TRICYCLIC COMPOUND AS KRAS G12D INHIBITOR, AND USE THEREOF” (SK Biopharmaceuticals Co., priority 2022, published 2026).

Legend:
[1] = target: T1, GppNHp-KRAS G12D mutant protein (Homo sapiens, UniProt P01116, G12D); experiment: Differential scanning fluorimetry (DSF) binding affinity to GppNHp-KRAS G12D mutant protein; settings: DSF thermal shift, 10 μM compound, 4 μg KRAS protein, 50 mM HEPES (pH 7.5)
T1 construct: purchased Daegu Gyeongbuk Medical Innovation Foundation (DGMIF), made to order
Experimental: (§1) Test Example 1: Measurement of Binding Affinity to KRAS G12D Mutant Protein The binding affinities of the compounds according to one embodiment of the present application to the KRAS G12D mutant protein were evaluated using differential scanning fluorimetry (DSF). Differential scanning fluorimetry (DSF) is a method used to study the stability of a protein upon binding to a compound. The experiment can be performed using a real-time PCR (RT-PCR) instrument, and is commonly employed as a screening technique for small-molecule compounds targeting specific proteins. As the temperature increases, folded proteins begin to unfold, during which a hydrophobic dye such as SYPRO Orange binds to the exposed hydrophobic regions of the protein, resulting in a measurable increase in fluorescence intensity (maximum absorption at 470 nm and maximum emission at 570 nm). Protein-compound binding is determined by the difference in the melting temperature (Tm) of the protein in the presence of the compound compared to the Tm in the absence of the compound, expressed as ΔTm. The binding affinity to the KRAS G12D mutant protein was measured using the Protein Thermal Shift Dye kit (#4461146, Applied Biosystems). The GDP-KRAS G12D mutant protein and GppNHp-KRAS G12D mutant protein used in the experiment were recombinant proteins synthesized by the Daegu Gyeongbuk Medical Innovation Foundation (DGMIF) upon request. The analysis of binding between the compound and the KRAS G12D mutant protein was performed according to the following reaction recipe: each test sample contained 4 μg of KRAS protein, 10 μM of the compound, and 2×SYPRO Orange dye. For the GDP-KRAS G12D protein samples, the buffer provided with the Protein Thermal Shift Dye kit was used, while for the GppNHp-KRAS G12D protein samples, 50 mM HEPES (pH 7.5) buffer was used. For the protein-compound binding reaction, the compound was added to the KRAS G12D mutant protein and reacted at room temperature for 30 minutes, followed by the addition of 2×SYPRO Orange dye. The temperature was increased to 25° C.-99° C. (0.05° C./s) using QuantStudiol RT-PCR instrument (Applied Biosystems), and fluorescence was measured using a ROX reporter with filters of 580±10 nm (excitation)/623±14 nm (emission). The measurements obtained at a compound concentration of 10 μM were analyzed using the Protein Thermal Shift Software program (version v1.4, Thermo Fisher Scientific), and the ΔTm (° C.) values, which indicate the binding affinity of the compound to the KRAS G12D mutant protein, were calculated. The DSF measurement results for the compounds according to one embodiment of the present application with respect to the KRAS G12D mutant protein are shown in Table 2.

[2] = target: T2, GDP-KRAS G12D mutant protein (Homo sapiens, UniProt P01116, G12D); experiment: Differential scanning fluorimetry (DSF) binding affinity to GDP-KRAS G12D mutant protein; settings: DSF thermal shift, 10 μM compound, 4 μg KRAS protein
T2 construct: purchased Daegu Gyeongbuk Medical Innovation Foundation (DGMIF), made to order
Experimental: as §1

## C#Cc1c(F)ccc2cc(N)cc(-c3cc4nc(OC[C@@]56CCCN5C/C(=C\F)C6)nc(N5C[C@H]6CC[C@@H](C5)N6)c4n4ccnc34)c12 [Example 36, 4-(1-((1R,5S)-3,8-diazabicyclo[3.2.1]octan-3-yl)-3-(((S,Z)-2-(fluoromethylene)tetrahydro-1H-pyrrolizin-7a(5H)-yl)methoxy)imidazo[1′,2′:1,6]pyrido[3,2-d]pyrimidin-6-yl)-5-ethynyl-6-fluoronaphthalen-2-amine]
[1]
  GppNHp-KRAS G12D (ΔTmD, ° C.): 3.42 °C
[2]
  GDP-KRAS G12D (ΔTmD, ° C.): 7.57 °C

## CCc1c(F)ccc2cc(O)cc(-c3cc4nc(OC[C@@]56CCCN5CC(=C(F)F)C6)nc(N5C[C@H]6CC[C@@H](C5)N6)c4n4ccnc34)c12 [Example 109, 4-(1-((1 R,5S)-3,8-diazabicyclo[3.2.1]octan-3-yl)-3-(((S)-2-(difluoromethylene)tetrahydro-1H-pyrrolizin-7a(5H)-yl)methoxy)imidazo[1′,2′:1,6]pyrido[3,2-d]pyrimidin-6-yl)-5-ethyl-6-fluoronaphthalen-2-ol]
[1]
  GppNHp-KRAS G12D (ΔTmD, ° C.): 4.28 °C
[2]
  GDP-KRAS G12D (ΔTmD, ° C.): 10.51 °C

## C#Cc1c(F)ccc2cccc(-c3cc4nc(OC[C@@]56CCCN5C/C(=C\F)C6)nc(N5C[C@H]6CC[C@@H](C5)N6)c4n4ccnc34)c12 [Example 27, 1-((1 R,5S)-3,8-diazabicyclo[3.2.1]octan-3-yl)-6-(8-ethynyl-7-fluoronaphthalen-1-yl)-3-(((S,Z)-2-(fluoromethylene)tetrahydro-1H-pyrrolizin-7a(5H)-yl)methoxy)imidazo[1′,2′:1,6]pyrido[3,2-d]pyrimidine]
[1]
  GppNHp-KRAS G12D (ΔTmD, ° C.): 0.71 °C
[2]
  GDP-KRAS G12D (ΔTmD, ° C.): 4.27 °C

## C#Cc1c(F)ccc2cc(O)cc(-c3cc4nc(OCC5(CN6CCC[C@H](F)C6)CC5)nc(N5C[C@H]6CC[C@@H](C5)N6)c4n4ccnc34)c12 [Example 31, 4-(1-((1R,5S)-3,8-diazabicyclo[3.2.1]octan-3-yl)-3-((1-(((S)-3-fluoropiperidin-1-yl)methyl)cyclopropyl)methoxy)imidazo[1′,2′:1,6]pyrido[3,2-d]pyrimidin-6-yl)-5-ethynyl-6-fluoronaphthalen-2-ol]
[1]
  GppNHp-KRAS G12D (ΔTmD, ° C.): 2.22 °C
[2]
  GDP-KRAS G12D (ΔTmD, ° C.): 7.82 °C

## Cc1cc(N)nc(-c2cc3nc(OC[C@@]45CCCN4C[C@H](F)C5)nc(N4[C@@H]5CC[C@H]4CNC5)c3n3ccnc23)c1C(F)(F)F [Example 20, 6-(1-((1R,5S)-3,8-diazabicyclo[3.2.1]octan-8-yl)-3-(((2R,7aS)-2-fluorotetrahydro-1H-pyrrolizin-7a(5H)-yl)methoxy)imidazo[1′,2′:1,6]pyrido[3,2-d]pyrimidin-6-yl)-4-methyl-5-(trifluoromethyl)pyridin-2-amine]
[1]
  GppNHp-KRAS G12D (ΔTmD, ° C.): 0.27 °C
[2]
  GDP-KRAS G12D (ΔTmD, ° C.): −0.17 °C

## C#Cc1c(F)ccc2cccc(-c3cc4nc(OC[C@@]56CCCN5C[C@H](F)C6)nc(N5C[C@H]6CC[C@@H](C5)N6)c4n4ccnc34)c12 [Example 28, 1-((1R,5S)-3,8-diazabicyclo[3.2.1]octan-3-yl)-6-(8-ethynyl-7-fluoronaphthalen-1-yl)-3-(((2R,7aS)-2-fluorotetrahydro-1H-pyrrolizin-7a(5H)-yl)methoxy)imidazo[1′,2′:1,6]pyrido[3,2-d]pyrimidine]
[1]
  GppNHp-KRAS G12D (ΔTmD, ° C.): 0.27 °C
[2]
  GDP-KRAS G12D (ΔTmD, ° C.): 3.53 °C

## Cc1cc2c(o1)c(-c1cccc3sc(N)nc13)c(F)c1nc(OC[C@@]34CCCN3C[C@H](F)C4)nc(N3CC4CCC(C3)N4)c12 [Example 54, 4-(1-((1R,5S)-3,8-diazabicyclo[3.2.1]octan-3-yl)-5-fluoro-3-(((2R,7aS)-2-fluorotetrahydro-1H-pyrrolizin-7a(5H)-yl)methoxy)-8-methylfuro[3,2-n]quinazolin-6-yl)benzo[d]thiazol-2-amine]
[1]
  GppNHp-KRAS G12D (ΔTmD, ° C.): 1.61 °C
[2]
  GDP-KRAS G12D (ΔTmD, ° C.): 2.95 °C
